SMILES strings stand for the structures. Activity calls are given as the source filed them. No cut-off for these calls is given here.

For data set [1], the target named is T1, Amine oxidase [copper-containing] 3 (Homo sapiens, UniProt Q16853).
T1 sequence (Q16853 whole entry): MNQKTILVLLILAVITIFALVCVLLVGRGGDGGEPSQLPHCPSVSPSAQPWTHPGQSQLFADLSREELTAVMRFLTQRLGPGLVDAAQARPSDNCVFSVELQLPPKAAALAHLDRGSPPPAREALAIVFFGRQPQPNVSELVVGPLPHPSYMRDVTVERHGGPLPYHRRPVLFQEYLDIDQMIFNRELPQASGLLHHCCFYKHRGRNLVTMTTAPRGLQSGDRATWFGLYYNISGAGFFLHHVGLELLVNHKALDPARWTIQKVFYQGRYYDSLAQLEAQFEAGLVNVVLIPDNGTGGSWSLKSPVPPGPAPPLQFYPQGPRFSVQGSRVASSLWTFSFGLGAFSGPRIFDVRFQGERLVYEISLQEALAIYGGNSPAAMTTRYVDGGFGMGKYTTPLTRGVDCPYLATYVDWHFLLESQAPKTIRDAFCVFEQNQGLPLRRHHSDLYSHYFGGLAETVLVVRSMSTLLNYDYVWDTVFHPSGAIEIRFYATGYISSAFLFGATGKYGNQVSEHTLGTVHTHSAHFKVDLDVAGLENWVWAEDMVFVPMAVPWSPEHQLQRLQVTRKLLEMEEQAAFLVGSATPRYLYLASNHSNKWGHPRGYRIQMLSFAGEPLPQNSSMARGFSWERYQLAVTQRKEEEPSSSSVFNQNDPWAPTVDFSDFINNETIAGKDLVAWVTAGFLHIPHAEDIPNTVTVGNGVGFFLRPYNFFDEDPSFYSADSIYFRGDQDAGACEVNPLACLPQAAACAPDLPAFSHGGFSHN
Kind of data set: Inhibition of human VAP1 expressed in CHO cells using [14C]-benzylamine as substrate incubated for 30 mins prior to substrate addition measured after 1 hr by scintillation spectrophotometric analysis. In kind it is cell-based.

Data set [2] deals with T2, Amine oxidase [copper-containing] 3 (Rattus norvegicus, UniProt O08590).
T2 sequence (O08590 whole entry): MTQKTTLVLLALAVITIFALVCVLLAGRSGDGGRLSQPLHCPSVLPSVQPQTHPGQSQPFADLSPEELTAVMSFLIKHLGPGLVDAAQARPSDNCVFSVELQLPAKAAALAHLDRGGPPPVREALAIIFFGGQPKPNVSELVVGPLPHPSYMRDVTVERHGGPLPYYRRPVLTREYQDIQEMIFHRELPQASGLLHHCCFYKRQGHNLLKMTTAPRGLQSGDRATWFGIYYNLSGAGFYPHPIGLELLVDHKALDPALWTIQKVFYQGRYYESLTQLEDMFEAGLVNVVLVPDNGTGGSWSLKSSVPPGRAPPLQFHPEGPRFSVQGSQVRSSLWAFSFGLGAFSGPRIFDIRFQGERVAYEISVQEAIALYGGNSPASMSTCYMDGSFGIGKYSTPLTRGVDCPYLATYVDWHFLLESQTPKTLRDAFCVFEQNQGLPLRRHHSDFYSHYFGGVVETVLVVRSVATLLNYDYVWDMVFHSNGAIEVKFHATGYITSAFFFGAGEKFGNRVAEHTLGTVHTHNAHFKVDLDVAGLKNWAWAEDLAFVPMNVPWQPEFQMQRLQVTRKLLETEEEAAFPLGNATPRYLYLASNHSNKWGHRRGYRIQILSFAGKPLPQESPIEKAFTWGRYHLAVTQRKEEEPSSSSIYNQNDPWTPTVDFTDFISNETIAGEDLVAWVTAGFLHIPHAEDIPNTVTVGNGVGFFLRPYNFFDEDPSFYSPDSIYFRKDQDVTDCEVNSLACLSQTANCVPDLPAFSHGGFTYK
Kind of data set: Inhibition of rat VAP1 expressed in CHO cells using [14C]-benzylamine as substrate incubated for 30 mins prior to substrate addition measured after 1 hr by scintillation spectrophotometric analysis. In kind it is cell-based.

The target of data set [3] is T3, Amine oxidase [flavin-containing] B (Homo sapiens, UniProt P27338).
T3 sequence (P27338 whole entry): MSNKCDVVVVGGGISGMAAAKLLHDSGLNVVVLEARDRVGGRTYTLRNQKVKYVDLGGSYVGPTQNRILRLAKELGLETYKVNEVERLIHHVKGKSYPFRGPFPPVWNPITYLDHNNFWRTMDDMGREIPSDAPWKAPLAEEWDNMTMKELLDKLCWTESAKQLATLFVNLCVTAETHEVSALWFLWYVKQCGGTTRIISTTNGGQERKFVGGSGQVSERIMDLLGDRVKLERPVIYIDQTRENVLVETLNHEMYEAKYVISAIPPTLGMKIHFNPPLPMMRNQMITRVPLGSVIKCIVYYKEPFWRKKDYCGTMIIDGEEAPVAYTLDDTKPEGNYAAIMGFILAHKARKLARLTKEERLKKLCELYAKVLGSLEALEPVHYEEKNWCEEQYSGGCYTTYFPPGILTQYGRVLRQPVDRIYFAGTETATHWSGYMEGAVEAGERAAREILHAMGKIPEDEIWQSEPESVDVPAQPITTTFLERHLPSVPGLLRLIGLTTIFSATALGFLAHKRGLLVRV
Kind of data set: Inhibition of human MAOB expressed in CHO cells using benzylamine as substrate after 1 hr by fluorometric assay. Type of data set: cell-based.

The species entered for data set [4] is Homo sapiens. The data set is described as follows: Selectivity ratio of IC50 for human DAO to IC50 for human VAP1.
In data set [5] the test system is Rattus norvegicus. The data set is described as follows: Inhibition of VAP1 in streptozotocin-induced Wistar rat diabetic model using [14C]-benzylamine as substrate assessed as [14C]-benzylaldehyde formation in plasma at >/= 0.1 mg/kg, sc after 1 hr by liquid scintillation counting analysis. In kind it is functional, organism-based. Details: dose 0.1 mg/kg.
Data set [6] deals with Rattus norvegicus. The data set is described as follows: Inhibition of VAP1-mediated ocular permeability in streptozotocin-induced Sprague-Dawley rat diabetic model assessed as fluorescein leakage in vitreous at 1 to 10 mg/kg, sc administered daily for 4 weeks post streptozotocin challenge measured 24 hrs post last dose by fluorescence assay. In kind it is functional, organism-based.

A short description of data set [7]: Selectivity ratio of IC50 for human VAP1 to IC50 for rat VAP1.
Data set [8] deals with Plasma. Kind of data set: Plasma concentration in sc dosed Wistar rat after 0.5 to 6 hrs by LC-MS analysis. The conditions noted are these: in vivo. In kind it is ADME, organism-based.
Data set [9] is filed under the species Homo sapiens. The data set is described as follows: Selectivity ratio of IC50 for human MAOB to IC50 for human VAP1.
Data set [10] deals with Plasma. Kind of data set: Plasma concentration in Wistar rat at 0.1 mg/kg, sc after 0.5 to 6 hrs by LC-MS analysis. In kind it is ADME, organism-based. More on the design: dose 0.1 mg/kg, route subcutaneous. The conditions noted are these: in vivo.

Turning to `CC(=O)Nc1cccc(CCc2ccc(NC(=N)N)cc2)c1`, the IC50 in data set [1] worked out at 15 µM.
In data set [1], `CC(=O)Nc1nc(CCc2ccc(NC3=NCCN3)cc2)cs1` yielded a half-maximal inhibitory concentration (IC50) of 3 µM. Compared with the last compound, the IC50 is about 5-fold lower.
Regarding `CC(=O)Nc1nc(Cc2ccc(NC(=N)N)cc2)cs1`, in [1], the half-maximal inhibitory concentration (IC50) was determined as 42 µM.
In turn, `CC(=O)Nc1nc(CCc2ccc(NC(N)=S)cc2)cs1` showed a half-inhibitory concentration (IC50) in data set [1] greater than 10 µM.
Regarding `CC(=O)Nc1nc(-c2ccc(CCNC(=N)N)cc2)cs1`, in data set [1], half-maximal inhibition (IC50) required 0.33 µM.
Same read-out and setting: the value for `CC(=O)Nc1nc(CCc2ccc(NC(=N)N(C)C)cc2)cs1` was greater than 100 µM.
Same read-out and setting: the value for `CC(=O)Nc1ccc(CCc2ccc(NC(=N)N)cc2)cc1` was 18 µM; that for `CC(=O)Nc1nc(CCc2ccc(N)cc2)cs1` was greater than 100 µM.
For the compound `CC(=O)Nc1nc(CCc2ccc(NC3=NCCS3)cc2)cs1`, the IC50 in data set [1] was determined as 3.5 µM.
In data set [1], `CC(=O)Nc1ncc(CCc2ccc(NC(=N)N)cc2)s1` displayed an IC50 of 9.6 µM. This IC50 is about 2.7-fold higher than that of the compound before.
Regarding `CC(=O)Nc1nc(CCc2ccc(CCN)cc2)cs1`, inhibition in [1] was half-maximal at 5 µM (IC50).
`CC(=O)Nc1nc(CCCc2ccc(NC(=N)N)cc2)cs1`: the half-inhibitory concentration (IC50) in data set [1] was determined as 8.8 µM.
In the case of `CSC(=N)Nc1ccc(CCc2csc(NC(C)=O)n2)cc1`, the concentration for half-maximal inhibition (IC50) in data set [1] turned out to be 1.1 µM.
As for `CC(=O)Nc1nc(CCc2ccc(N=C(N)NC(C)C)cc2)cs1`, the IC50 in data set [1] stood at 1.1 µM.
Compound `N=C(N)Nc1ccc(CCc2csc(NC(=O)c3ccccc3)n2)cc1` showed an IC50 in data set [1] of 11 µM. This IC50 lies about 10-fold higher than the previous one.
Consider `CC(=O)Nc1nc(CCc2ccc(NC=N)cc2)cs1`, for which the concentration for half-maximal inhibition (IC50) in data set [1] worked out at 0.73 µM.
With `N=C(N)Nc1ccc(CCc2csc(N)n2)cc1`, the half-inhibitory concentration (IC50) in data set [1] is 22 µM.
With `CCNC(=N)Nc1ccc(CCc2csc(NC(C)=O)n2)cc1`, it took 0.68 µM to reach half-maximal inhibition in data set [1] (IC50).
Turning to `CC(=O)Nc1nc(CCc2ccc(NC(=N)N)cc2)cs1`, the concentration for half-maximal inhibition (IC50) in data set [2] is 0.014 µM; in data set [3] it was greater than 100 µM; in data set [1] it was 0.23 µM. Also, the Ratio IC50 in the data set listed under Homo sapiens [4] was greater than 435; in data set [7] it was 16; in the data set filed under Homo sapiens [9] it was greater than 435. Besides, the inhibition result with Rattus norvegicus [5] and with Rattus norvegicus [6] was “Active” in each case. In addition, the Cp entry in the data set on Plasma [8] is “Dose-dependent effect”; in the data set with Plasma [10], 21.8 ng/mL.
`CC(C)C(=O)Nc1nc(CCc2ccc(NC(=N)N)cc2)cs1` yielded a concentration for half-maximal inhibition (IC50) in [1] of 0.52 µM.

For orientation: IC50 means the concentration needed to halve the response being measured. Read a low IC50 as inhibition by little substance.

The values above are taken from ChEMBL document CHEMBL2321785, “Synthesis and SAR study of new thiazole derivatives as vascular adhesion protein-1 (VAP-1) inhibitors for the treatment of diabetic macular edema” (Bioorg Med Chem, 2013).
